Series [1] relates to HEK 293T (human embryonic kidney cancer cell line). Put plainly: In vitro cytotoxicity assay (CellTiter-Glo, 72 hours), HEK 293T. The format is cell-based. Background: ATP-based viability assays read luminescence as a measure of living cells.
Series [2] concerns MES SA DX (MES SA cell line with marked multi-drug resistance). Put plainly: In vitro cytotoxicity assay (CellTiter-Glo, 72 hours), MES SA DX.
Series [3] relates to MES SA (uterine sarcoma cell line). Put plainly: In vitro cytotoxicity assay (CellTiter-Glo, 72 hours), MES SA. The format is cell-based.
[4] abbreviates: Homo sapiens, HEK-293T, 72 h, read-out: HEK 293T, IC50 Value in nM.
[5] abbreviates: Homo sapiens, MES-SA, 72 h, read-out: MES SA DX, IC50 Value in nM.
Where [6] appears, read: Homo sapiens, MES-SA, 72 h, read-out: MES SA, IC50 Value in nM.
[7] abbreviates: Homo sapiens, HEK-293T, 72 h, read-out: HEK 293T, IC50.
Where [8] appears, read: Homo sapiens, MES-SA, 72 h, read-out: MES SA DX, IC50.
[9] abbreviates: Homo sapiens, MES-SA, 72 h, read-out: MES SA, IC50.

Like-named read-outs stand apart in the source and are kept apart here.

Usually IC50 stands for the concentration that gives 50% inhibition.

In the case of `CC(=O)O[C@H](CC(C(C)C)N(C)C(=O)[C@@H](NC(=O)[C@H]1CCCCN1C)C(C)C)c1nc(C(=O)NC(Cc2ccccc2)CC(C)C(=O)O)c(CCO)s1` (stereo in doubt) [Tb113, (2R,4S)-4-[({2-[(1R,3S)-1-Acetoxy-4-methyl-3-{methyl[(2S)-3-methyl-2-{[(1-methylpiperidin-2-yl)-carbonyl]amino}butanoyl]amino}pentyl]-5-(2-hydroxyethyl)-1,3-thiazol-4-yl}carbonyl)amino]-2-methyl-5-phenylpentanoic acid], the figures for the concentration for half-maximal inhibition (IC50) in series [1] (setting [4]), in series [2] (setting [5]) and in series [3] (setting [6]) were 0.315 nM, greater than 400 nM and 5.79 nM, respectively.
For `COC(=O)[C@@H](C)C[C@H](Cc1ccccc1)NC(=O)c1nc([C@@H](C[C@H](C(C)C)N(C)C(=O)[C@@H](NC(=O)[C@H]2CC(=O)CCN2C)C(C)C)OC(C)=O)sc1C(C)C` [Tb75, Methyl (2S,4R)-4-[({2-[(1R,3R)-1-acetoxy-4-methyl-3-{methyl[(2S)-3-methyl-2-({[(2R)-1-methyl-4-oxopiperidin-2-yl]carbonyl}amino)butanoyl]amino}pentyl]-5-isopropyl-1,3-thiazol-4-yl}carbonyl)-amino]-2-methyl-5-phenylpentanoate], the IC50 in series [1] (setting [4]) was 127 nM; in series [2] (setting [5]), greater than 400 nM; in series [3] (setting [6]), no less than 400 nM.
For the compound `COC(=O)[C@@H](C)C[C@H](Cc1ccccc1)NC(=O)c1csc([C@@H](C[C@H](C(C)C)N(C)C(=O)[C@H](NC(=O)[C@H]2CCCCN2C)C(C(F)(F)F)C(F)(F)F)OC(C)=O)n1` [Tb85, Methyl(2S,4R)-4-[({2-[(1R,3R)-1-acetoxy-4-methyl-3-{methyl[(2R)-4,4,4-trifluoro-2-({[(2R)-1-meth-ylpiperidin-2-yl]carbonyl}amino)-3-(trifluoromethyl)butanoyl]amino}pentyl]-1,3-thiazol-4-yl}-carbonyl)amino]-2-methyl-5-phenylpentanoate], the IC50 in series [1] (setting [4]) is 32.4 nM; in series [2] (setting [5]), greater than 1000 nM; in series [3] (setting [6]) it was 37.3 nM.
`COC(=O)[C@@H](C)C[C@H](Cc1ccccc1)NC(=O)c1csc([C@@H](C[C@H](C(C)C)N(C)C(=O)[C@H](CC(F)(F)F)NC(=O)[C@H]2CCCN2C)OC(C)=O)n1` [Tb82, Methyl (2S,4R)-4-[({2-[(1R,3R)-1-acetoxy-4-methyl-3-{methyl[(2S)-4,4,4-trifluoro-2-({[(2R)-1-methylpyrrolidin-2-yl]carbonyl}amino)butanoyl]amino}pentyl]-1,3-thiazol-4-yl}carbonyl)amino]-2-methyl-5-phenylpentanoate]: the figures for the IC50 in series [1] (setting [4]), in series [2] (setting [5]) and in series [3] (setting [6]) were 51.6 nM, greater than 1000 nM and 47.5 nM, respectively.
As to `CCCCN1CCCC[C@@H]1C(=O)N[C@H](C(=O)N(C)[C@H](C[C@@H](OC(C)=O)c1nc(C(=O)N[C@@H](Cc2ccccc2)CC(CO)C(=O)OC)cs1)C(C)C)[C@@H](C)CC` (stereo partly drawn) [Tb56, Methyl (4R)-4-[({2-[(1R,3R)-1-acetoxy-3-{[(2S,3S)-2-({[(2R)-1-butylpiperidin-2-yl]carbonyl}amino)-3-methylpentanoyl](methyl)amino}-4-methylpentyl]-1,3-thiazol-4-yl}carbonyl)amino]-2-(hydroxy-methyl)-5-phenylpentanoate], the IC50 in series [1] (setting [4]), in series [2] (setting [5]) and in series [3] (setting [6]) was greater than 1000 nM in each case.
On to `CC(=O)O[C@H](C[C@H](C(C)C)N(C)C(=O)[C@@H](NC(=O)[C@H]1CCCCN1C)C(C)C)c1cccc(C(=O)N[C@@H](Cc2ccccc2)C[C@H](C)C(=O)O)n1` [Tb65, (2S,4R)-4-[({6-[(1R,3R)-1-Acetoxy-4-methyl-3-{methyl[(2S)-3-methyl-2-({[(2R)-1-methylpiperidin-2-yl]carbonyl}amino)butanoyl]amino}pentyl]pyridin-2-yl}carbonyl)amino]-2-methyl-5-phenylpentanoic acid], for which the IC50 in series [1] (setting [4]) amounted to 2.04 nM; in series [2] (setting [5]) it was 279 nM; in series [3] (setting [6]) it was 2.44 nM.
As to `CCCCN1CCCC[C@@H]1C(=O)N[C@H](C(=O)N(C)[C@H](C[C@@H](OC(C)=O)c1nc(C(=O)N[C@@H](Cc2cn(C)c3ccccc23)C[C@H](C)C(=O)OC)cs1)C(C)C)[C@@H](C)CC` [Tb57, Methyl (2S,4R)-4-[({2-[(1R,3R)-1-acetoxy-3-{[(2S,3S)-2-({[(2R)-1-butylpiperidin-2-yl]carbonyl}-amino)-3-methylpentanoyl](methyl)amino}-4-methylpentyl]-1,3-thiazol-4-yl}carbonyl)amino]-2-methyl-5-(1-methyl-1H-indol-3-yl)pentanoate], the IC50 in series [1] (setting [4]), in series [2] (setting [5]) and in series [3] (setting [6]) was greater than 1000 nM each time.
As to `COC(=O)C12CC(NC(=O)c3csc([C@@H](C[C@H](C(C)C)N(C)C(=O)[C@@H](NC(=O)[C@H]4CCCCN4C)C4CC4)OC(C)=O)n3)(C1)C2` [Tb100, Methyl 3-{[(2-{1-acetoxy-3-[(cyclopropyl{[(1-methylpiperidin-2-yl)carbonyl]amino}acetyl)(methyl)-amino]-4-methylpentyl}-1,3-thiazol-4-yl)carbonyl]amino}bicyclo[1.1.1]pentane-1-carboxylate], the IC50 in series [1] (setting [4]) is 16.5 nM; in series [2] (setting [5]), greater than 1000 nM; in series [3] (setting [6]) it was 15.2 nM.
For the compound `COC(=O)[C@@H](C)C[C@H](Cc1ccccc1)NC(=O)c1cccc([C@@H](C[C@H](C(C)C)N(C)C(=O)[C@@H](NC(=O)[C@H]2CCCCN2C)C(C)C)OC(C)=O)n1` [Tb64, Methyl (2S,4R)-4-[({6-[(1R,3R)-1-acetoxy-4-methyl-3-{methyl[(2S)-3-methyl-2-({[(2R)-1-methyl-piperidin-2-yl]carbonyl}amino)butanoyl]amino}pentyl]pyridin-2-yl}carbonyl)amino]-2-methyl-5-phenylpentanoate], the IC50 was found to be 0.1 nM in series [1] (setting [7]); 0.1 nM in series [1] (setting [4]); 109 nM in series [2] (setting [8]); 109 nM in series [2] (setting [5]); 0.22 nM in series [3] (setting [9]); 0.22 nM in series [3] (setting [6]).
As for `COC(=O)[C@@H](C)C[C@H](Cc1ccccc1)NC(=O)c1csc([C@@H](C[C@H](C(C)C)N(C)C(=O)[C@@H](NC(=O)[C@H]2CCCCN2C)C(C(F)(F)F)C(F)(F)F)OC(C)=O)n1` [Tb79, Methyl (2S,4R)-4-[({2-[(1R,3R)-1-acetoxy-4-methyl-3-{methyl[(2S)-4,4,4-trifluoro-2-({[(2R)-1-meth-ylpiperidin-2-yl]carbonyl}amino)-3-(trifluoromethyl)butanoyl]amino}pentyl]-1,3-thiazol-4-yl}carbonyl)amino]-2-methyl-5-phenylpentanoate], the IC50 in series [1] (setting [4]) was 36.4 nM; in series [2] (setting [5]) it was greater than 1000 nM; in series [3] (setting [6]), 39.1 nM.
Taken in the same sequence, the figures for `CC(=O)O[C@H](C[C@H](C(C)C)N(C)C(=O)[C@H](NC(=O)[C@H]1CCCCN1C)C(C(F)(F)F)C(F)(F)F)c1nc(C(=O)N[C@@H](Cc2ccccc2)C[C@H](C)C(=O)O)cs1` [Tb87, (2S,4R)-4-[({2-[(1R,3R)-1-Acetoxy-4-methyl-3-{methyl[(2R)-4,4,4-trifluoro-2-({[(2R)-1-methyl-piperidin-2-yl]carbonyl}amino)-3-(trifluoromethyl)butanoyl]amino}pentyl]-1,3-thiazol-4-yl}carbonyl)amino]-2-methyl-5-phenylpentanoic acid] were greater than 1000 nM, greater than 1000 nM and 234 nM.
As for `CCOC(=O)C(C)CC(Cc1ccccc1)NC(=O)c1nc([C@@H](CC(C(C)C)N(C)C(=O)[C@@H](NC(=O)[C@H]2CCCCN2C)C(C)C)OC(C)=O)sc1CCO` (stereo in doubt) [Tb112, Ethyl (2R,4S)-4-[({2-[(1R,3S)-1-acetoxy-4-methyl-3-{methyl[(2S)-3-methyl-2-{[(1-methylpiperidin-2-yl)carbonyl]amino}butanoyl]amino}pentyl]-5-(2-hydroxyethyl)-1,3-thiazol-4-yl}carbonyl)amino]-2-methyl-5-phenylpentanoate], the IC50 is 0.09 nM in series [1] (setting [7]); 0.09 nM in series [1] (setting [4]); greater than 400 nM in series [2] (setting [8]); greater than 400 nM in series [2] (setting [5]); 0.1 nM in series [3] (setting [9]); 0.1 nM in series [3] (setting [6]).
For `CC(=O)O[C@H](C[C@H](C(C)C)N(C)C(=O)[C@@H](NC(=O)[C@H]1CCCCN1C)C(C)C)c1nc(C(=O)NC(Cc2ccccc2)C[C@H](C)C(=O)O)c(CCOCc2ccccc2)s1` (stereo in doubt) [Tb111, (2S,4S)-4-[({2-[(1R,3R)-1-acetoxy-4-methyl-3-{methyl[(2S)-3-methyl-2-{[(1-methylpiperidin-2-yl)carbonyl]amino}butanoyl]amino}pentyl]-5-[2-(benzyloxy)ethyl]-1,3-thiazol-4-yl}carbonyl)-amino]-2-methyl-5-phenylpentanoic acid], the IC50 in series [1] (setting [7]) amounted to 0.006 nM; in series [1] (setting [4]) it was 0.006 nM; in series [2] (setting [8]), 1.54 nM; in series [2] (setting [5]) it was 1.54 nM; in series [3] (setting [9]), 0.04 nM; in series [3] (setting [6]), 0.04 nM. For the same compound, in series [2], the “cytotoxicities against the marked drug resistant cancer cell line MES SA DX (in words)” value was “relatively potent (low nanomolar)”.
As for `COC(=O)[C@@H](C)C[C@H](Cc1ccccc1)NC(=O)c1csc(CC[C@H](C(C)C)N(C)C(=O)[C@@H](NC(=O)[C@H]2CCCCN2C)C(C)C)n1` [PTb-D48], the IC50 in series [1] (setting [4]), in series [2] (setting [5]) and in series [3] (setting [6]) was greater than 1000 nM throughout.
As to `COC(=O)[C@@H](C)C[C@H](Cc1ccccc1)NC(=O)c1csc([C@@H](C[C@H](C(C)C)N(C)C(=O)[C@@H](NC(=O)[C@H]2CCCCN2C)C(C)C)OC(C)=O)n1` [Tb32, reference compound], the IC50 in series [1] (Table 2, 72 hours, CellTiter-Glo, read-out: HEK 293T, IC50 Value in nM) came to 0.002 nM; in series [2] (read-out: MES SA DX, IC50 Value in nM, Table 2, 72 hours, CellTiter-Glo), 1.29 nM; in series [3] (Table 2, 72 hours, CellTiter-Glo, read-out: MES SA, IC50 Value in nM), 0.012 nM.

These data come from patent US11274124B2, “Tubulysin analogues as anticancer agents and payloads for antibody-drug conjugates and methods of treatment therewith” (William Marsh Rice University, priority 2017, dated 2022).
